Where two headings read alike, the source gives them in different places.
What was measured:
[1] = system: PARP1/2; conditions: olaparib 50 mg/kg; for Initial blocking (t = 1 h): talazoparib 0.3 mg/kg i.v., 60 min between drug and tracer
Description: All PET/CT images (n = 90) were acquired on an Inveon PET/CT (Siemens) and reconstructed scans were analyzed using the Inveon Research Workplace Software (Siemens). To acquire PET/CT images, animals were anesthetized with 2% isoflurane and positioned on the scanner bed. […] PET data were collected for 5–10 min, followed by CT.
Activity concentration was quantified by averaging the mean values taken from VOIs drawn over the entire tumor as it appeared in the CT and portrayed as a mean %ID/g ± SD.

[2] = system: PARP; conditions: cited from earlier work
[3] = system: PARP1/2; test: In vitro binding kinetics by recovery of PARPi-FL binding (flow cytometry); format: cell-based, human; conditions: JHU-LX22 cells, 0.2 µM inhibitor 25 min, washed, 0-48 h post-incubation, two phase decay fit
Description: Cells were then treated with fluorescent imaging agent PARPi-FL and either imaged via confocal microscopy or measured via flow cytometry. […] Then, cells were trypsinized, subjected to flow cytometry and analyzed for the relative PARPi-FL fluorescence signal. […] Error bars represent the SD of three independent experiments with three parallels each
After the respective treatment/staining, which is described below for the different experiments, cells were washed in PBS, trypsinized, washed with flow buffer (1% BSA (w/v) in PBS), transferred to 5 mL flow cytometry tubes through the 40 µm cell strainer cap and left on ice until measurement in the flow cytometer (Fortessa II). Raw data were processed in FlowJo software in order to calculate PARPi-FL uptake per cell. Dead cells were excluded by eliminating DAPI positive cells from the analysis (Supplementary Fig. 8). Cell clumps and debris were eliminated using the corresponding gates (forward and side scatter) for the unstained cell population. PARPi-FL fluorescence was imaged in the FITC channel against side scatter (area).
We furthermore determined the duration of PARPi binding to their target site. […] Then, cells were subjected to flow cytometry as described above. […] We determined the duration of binding of the PARPi indirectly by calculating the recovery of PARP-FL binding with increasing times between PARPi and PARPi-FL treatment. Decay curves were calculated with Prism using two phase decay least squares regression.

[4] = system: PARP1/2; test: Ex vivo autoradiography of target engagement; conditions: olaparib 50 mg/kg, talazoparib 0.3 mg/kg, 30 min prior to tracer; tumor collected 2 h post tracer
Description: Sections from 3 different tumor areas from each tumor (n = 3/group) were exposed to an autoradiography plate overnight and read the next day. ImageJ was used to quantify the signal intensity of each tissue. Adjacent sections were used for PARP1 IHC and H&E staining to confirm tissue identity and PARP1 expression.

[5] = system: PARP1/2; conditions: for Blocking of [18F]PARPi tumor uptake (target engagement): 30 min before tracer, PET 2 h later
Text: Fig. 7 Variable dose blocking.
The control group received no therapeutic inhibitor.

[6] = system: PARylation in LX22 cells; test: PARylation inhibition assay (western blot for PAR); format: cell-based, human; conditions: 0.1 µM, 30 min incubation
Description: Whole cell lysates were prepared by incubating cells with RIPA Buffer with Triton X (BP-140, Boston BioProducts) containing Protease Inhibitor (Complete EASYpacks, Sigma-Aldrich) for 30 min on ice, followed by 30 min centrifugation at 10,000 × g for 30 min at 4 °C. Protein concentration of lysates was determined using a Bicinchoninic acid (BCA) assay kit (#23225, Pierce) and following the manufacturers instructions. SDS gel electrophoresis and immunoblotting were carried out following standard procedures. Signal detection was carried out using chemiluminescent substrate (#34077, Thermo Scientific). Densitometric analysis of western blots was carried out using ImageJ (NIH). To detect PAR, we used a rabbit polyclonal anti-PAR polymer antibody (1:1000 dilution, #4336-BPC-100, Trevigen) followed by a goat anti-rabbit IgG-HRP secondary antibody (1:10,000 dilution, sc-2004, SantaCruz). B-actin was used as loading control (1:1000 dilution, A3854, Sigma-Aldrich) and was stained after stripping the blot for 30 min at room temperature using stripping buffer (Amresco).
Supplementary Figure 3 | PARylation inhibition assay.
PARPi-FL and [18F]PARPi quantify PARP inhibition, we compared their ability to inhibit PARylation
in comparison with olaparib.
inhibition. At 1 µM, the PAR signal for all three compounds is nearly completely eliminated.

[7] = biological target: T1, PARP2 (Homo sapiens, UniProt Q9UGN5); test: PARP2 IC50 assay (BPS Bioscience, Strep-HRP, histone substrate); format: biochemical; conditions: footnote a: see Supplementary Fig. 2
T1 construct: purchased BPS Bioscience, San Diego, CA
Description: Assays were performed by BPS Bioscience, San Diego, CA. […] Data was reported by BPS a`s % enzyme activity curve from 0.03 nM or 0.1 nM to 1000 nM.

T1 sequence (Q9UGN5 whole entry): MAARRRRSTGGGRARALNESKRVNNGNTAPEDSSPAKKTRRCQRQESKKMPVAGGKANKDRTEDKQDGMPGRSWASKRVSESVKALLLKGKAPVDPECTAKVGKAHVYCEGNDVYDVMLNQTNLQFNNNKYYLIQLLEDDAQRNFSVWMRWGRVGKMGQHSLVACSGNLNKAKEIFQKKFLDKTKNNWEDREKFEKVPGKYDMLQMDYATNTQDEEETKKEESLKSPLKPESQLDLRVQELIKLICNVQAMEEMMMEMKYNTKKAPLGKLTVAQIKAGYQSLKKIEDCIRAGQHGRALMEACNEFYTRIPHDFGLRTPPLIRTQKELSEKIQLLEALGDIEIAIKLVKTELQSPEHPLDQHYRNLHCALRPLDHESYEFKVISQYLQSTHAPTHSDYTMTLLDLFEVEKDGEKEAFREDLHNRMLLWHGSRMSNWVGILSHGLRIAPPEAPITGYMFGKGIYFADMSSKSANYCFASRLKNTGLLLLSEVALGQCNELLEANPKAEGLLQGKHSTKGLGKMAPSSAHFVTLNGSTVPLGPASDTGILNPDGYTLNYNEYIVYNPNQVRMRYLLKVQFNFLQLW

Row | Compound | Initial blocking (t = 1 h) [1] [%] | Initial blocking (t = 1 h) ([1]; listed as talazoparib) [%] | AUC ([1]; target engagement over 48 h, single dose, talazoparib 0.3 mg/kg) [%h] | t1/2 (weighted) ([1]; two phase decay fit of target engagement, talazoparib 0.3 mg/kg) [h] | PARP trapping, in words [2] | Retention on PARP1/2 binding sites, in words [3] | [18F]PARPi tumor uptake blocked (autoradiography) [4] [%] | Blocking of [18F]PARPi tumor uptake (target engagement) ([5]; 0.3 mg/kg i.v.) [%] | Blocking of [18F]PARPi tumor uptake (target engagement) ([5]; 0.9 mg/kg i.v.) [%] | Blocking of [18F]PARPi tumor uptake (target engagement) ([5]; 5 mg/kg i.v.) [%] | Blocking of [18F]PARPi tumor uptake (target engagement) ([5]; 15 mg/kg i.v.) [%] | 50% blocking dose ([5]; single-phase decay curve fit, JHU-LX48 PDX tumor) [mg/kg] | Inhibition of PARylation (PAR signal) [6] | IC50 [7] [nM]
1 | Cn1ncnc1[C@H]1c2n[nH]c(=O)c3cc(F)cc(c23)N[C@@H]1c1ccc(F)cc1 [Talazoparib, (8S,9R)-5-Fluoro-8-(4-fluorophenyl)-9-(1-methyl-1H-1,2,4-triazol-5-yl)-2,7,8,9-tetrahydro-3H-pyrido[4,3,2-de]phthalazin-3-one] | 56 | 56 | 1021 | 9.8 | most effective PARP trapping agent | longest retention | 45 | 50 | 64 | 89 | 84 | 0.36 |  | 
2 | O=C(c1ccc(F)cc1)N1CCN(C(=O)c2cc(Cc3n[nH]c(=O)c4ccccc34)ccc2F)CC1 [^19F-PARPi] |  |  |  |  |  | longest retention |  |  |  |  |  |  | nearly complete inhibition | 
3 | CC1=CC(C)=[N+]2C1=Cc1ccc(CCC(=O)N3CCN(C(=O)c4cc(Cc5n[nH]c(=O)c6ccccc56)ccc4F)CC3)n1[B-]2(F)F [PARPi-FL] |  |  |  |  |  |  |  |  |  |  |  |  | reduced PAR signal, but not complete | 0.31

— article PMC5766608, “Target engagement imaging of PARP inhibitors in small-cell lung cancer” (Nature Communications, 2018)
